The nature of series [1]: 17O NMR and NMRD measurements (water exchange, rotation, hydration number). The note with it: ratio of kex^298 values. The class given is physicochemical. The protocol:
The relaxivity of paramagnetic metal complexes is governed by several parameters, including the water exchange rate (kex), the rotational correlation time (τR), and the number of inner sphere water molecules (q). In order to obtain information for these parameters, temperature dependent ^17O NMR measurements (9.4 T) and nuclear magnetic relaxation dispersion (NMRD) experiments were carried out in the frequency range of 0.01–80 MHz, at 3 different temperatures (25, 37, and 50 °C). Since numerous physico-chemical parameters determine the relaxivity, the independent assessment of some of the parameters is essential for the correct characterization. The variable temperature ^17O NMR measurements can deliver information about kex and τR via the transverse (1/T2) and the longitudinal (1/T1) ^17O relaxation rates, respectively, while the ^17O chemical shifts (Δω) depend on q. Therefore, the transverse and longitudinal relaxation rates and chemical shifts for a [Mn(3,9-OPC2A)] complex and a diamagnetic reference sample (HClO4, pH = 3.3) have been determined in the aqueous solution.
The ^17O 1/T2r values and the NMRD data have been analyzed simultaneously by the Swift–Connick equations [31], as well as by the Solomon–Bloembergen–Morgan (SMB) and Freed models (see Supporting Information). In this calculation, the water exchange rate, kex^298; its activation enthalpy and entropy, ΔH^‡ and ΔS^‡; the rotational correlational time, τR; its activation energy, ER; the square of the zero-field splitting energy (ZFS), Δ^2; and the correlation time of its modulation, τv, have been determined and listed in Table 5, together with corresponding values of other complexes for comparison. As a result of the high number of parameters involved in the calculations, some have to be set to reasonable estimates based on literature data. Thus, the scalar coupling constant, A/ħO, is set to 33 × 10^6 rad s^−1, the distance between the metal ion, and the inner and outer sphere water protons are fixed to rMnH = 2.83 Å and aMnH = 3.6 Å, respectively; the diffusion coefficient and its activation energy are fixed to DMnH = 23 × 10^−10 m^2s^−1 and EMnH = 18 kJmol^−1, and the activation energy of the modulation of the zero-field-splitting, Ev to 1.0 kJmol^−1.
The hydration number has been fixed to q = 1, based on the relaxivity value measured at 20 MHz (r1 = 3.09 mM^−1s^−1), and on the value, 0.97 ± 0.2, determined for q using the method proposed by Gale et al..
A Bruker Avance 400 (9.4 T) spectrometer was used to measure the longitudinal (1/T1) and transverse (1/T2) relaxation rates, and the chemical shifts of an aqueous solution of the [Mn(3,9-OPC2A)] complex (pH = 7.4, 1.3 mM) and a diamagnetic reference (HClO4 acidified water, pH = 3.3) in the temperature range of 273–348 K. The temperature calibration was performed using literature protocols relying on ethylene glycol and methanol standards. The 1/T1 and 1/T2 values were determined by the inversion−recovery and the Carr−Purcell−Meiboom−Gill spin echo technique, respectively. To avoid susceptibility corrections of the chemical shifts, a glass sphere fitted into a 10 mm NMR tube was used to contain the samples. ^17O enriched water (10% H2^17O, CortecNet) was added to the solutions to improve sensitivity (circa 1% enrichment). Proton NMRD profiles of the [Mn(3,9-OPC2A)] complex (1.00 mM, pH = 7.4) were recorded in aqueous solution on a Stelar SMARTracer Fast Field Cycling relaxometer (0.01−10 MHz), and a Bruker WP80 NMR electromagnet adapted to variable field measurements (20−80 MHz) and controlled by a SMARTracer PC-NMR console (Stelar s.r.l., Mede, Italy). The temperature was monitored by a VTC91 temperature control unit and maintained by a gas flow. The temperature was determined by previous calibration with a Pt resistance temperature probe. […]

For series [2] the following is noted: cited from earlier work.
The conditions of series [3]: cited from earlier work. The source holds these as a separate data set.
For series [4] the following is noted: Zn^2+ complex, T = 25 °C, I = 0.15 M NaCl, cited from earlier work; for log KMnLOH: DO2A values carry footnote f, ref 12 (DO2A ligands); for log KMnLOH / log KMnL: 20 (H21,7-O2DO2A); for log KMnL / log KMnHL: ref 16 (PC2A ligands), 12 (DO2A ligands).
For series [5] the following is noted: T = 25 °C, I = 0.15 M NaCl, ref 16 (PC2A ligands), 12 (DO2A ligands), cited from earlier work; for log K1^H / log K2^H / log K3^H / Σlog Κ2^H: 20 (H21,7-O2DO2A); for Σlog Κ2^H: log K1^H + log K2^H.
The conditions of series [6]: Cu^2+ complex; T = 25 °C, I = 0.15 M NaCl; ref 16 (PC2A ligands), 12 (DO2A ligands), 20 (H21,7-O2DO2A); cited from earlier work.
The conditions of series [7]: Mn(II) complex, 25 °C, pH = 7.4, cited from earlier work.
The conditions of series [8]: Ca^2+ complex, T = 25 °C, I = 0.15 M NaCl, cited from earlier work; for log KMnL: ref 16 (PC2A ligands), 12 (DO2A ligands), 20 (H21,7-O2DO2A).
For series [9] the following is noted: T = 25 °C, ref 16 (PC2A ligands), 12 (DO2A ligands), cited from earlier work; for log KMnL / log KMnHL: Mn^2+ complex, I = 0.15 M NaCl; for log KMnL / pMn: 20 (H21,7-O2DO2A); for pMn: pMn = −log(Mn(II)free), cMn^2+ = cligand = 1 × 10^−5 M, pH = 7.4.
For series [10] the following is noted: Mg^2+ complex, T = 25 °C, I = 0.15 M NaCl, cited from earlier work.
The mark [11] stands for this setting: 0.49 T, ref 16 (PC2A ligands), 12 (DO2A ligands), 20 (H21,7-O2DO2A).

The structures appear in SMILES notation. Where two headings read alike, the source gives them in different places. Marks after values point to notes of the source that are not given here.

The text below walks through data of paper PMC8778187, “A New Oxygen Containing Pyclen-Type Ligand as a Manganese(II) Binder for MRI and ^52Mn PET Applications: Equilibrium, Kinetic, Relaxometric, Structural and Radiochemical Studies” (Molecules, 2022).

Consider `O=C([O-])CN1CCNCCNCCN(CC(=O)[O-])CC1.[Mn+2]` [[Mn(1,4-DO2A)]], for which the “water exchange faster than on [Mn(3,9-OPC2A)]” value in series [1] worked out at 20 times. Besides, the “r1^298_20 MHz” value in series [2] (20 MHz, 298 K) is 2.1 mM⁻¹ s⁻¹. Moreover, the ER in [2] (activation energy of rotation) is 19.1 kJmol^−1. In series [2] (activation enthalpy of water exchange), the “ΔH^‡” value is recorded as 29.4 kJmol^−1. The “τv^298” value in series [2] (correlation time of ZFS modulation) is recorded as 4.4 ps. In addition, in [2] (hydration number, fixed during the fitting procedure), the q is 0.87. Moreover, in series [2] (rotational correlation time), the “τR^298” value is listed as 46 ps. For the same compound, the “Δ^2” value in [2] (square of the zero-field splitting energy) is reported as 481 10^18s^−2. For the same compound, in series [2] (water exchange rate), the “kex^298” value is reported as 113 10^7s^−1. Besides, the k2 in series [3] (T = 25 °C, I = 0.15 M NaCl, ref 16 ([Mn(3,6-PC2A)]), 12 ([Mn(1,4-DO2A)]), 20 ([Mn(1,7-O2DO2A)])) was 1.4 × 10^6 M^−2s^−1. In series [3] (extrapolated to pH = 7.4, ref 16 (PC2A complexes), 12, 13, 20), the “t1/2 (h) at pH = 7.4” value is listed as 48 h. For the same compound, the k1 in series [3] (proton assisted dissociation, T = 25 °C, I = 0.15 M NaCl, ref 16 (PC2A complexes), 12, 13, 20) was 99 M⁻¹ s⁻¹.
For the compound `O=C(O)CN1CCNCCNCCN(CC(=O)O)CC1` [H21,4-DO2A], in series [4], the “log KMnLOH” value is reported as 1.65 ^f, the “log KMnL” value is reported as 18.03 and the “log KMnHL” value is on record as 3.58. Also, in series [5], the “log K1^H” value is 11.44, the “log K2^H” value is given as 9.51, the “log K3^H” value is on record as 4.14 and the “log K4^H” value is recorded as 1.55. The “Σlog Κ2^H” value in series [5] is listed as 20.95. Further, in series [6], the “log KMnHL” value is 2.95 and the “log KMnL” value is listed as 24.43 ^g. Besides, the r1p in series [7] (setting [11]) was 2.10 mM⁻¹ s⁻¹. Moreover, the “log KMnL” value in series [8] was 8.62. Besides, in series [9], the “log KMnL” value was 15.68, the “log KMnHL” value is 4.15 and the pMn was 7.27.
With `O=C(O)CN1CCNCc2cccc(n2)CN(CC(=O)O)CC1` [H23,6-PC2A], in series [4], the “log KMnL” value is listed as 20.37 and the “log KMnHL” value is given as 2.36. In series [5], the “log K1^H” value was 10.72, the “log K2^H” value is reported as 8.37, the “log K3^H” value is reported as 3.81 and the “log K4^H” value was 1.26. For the same compound, in series [5], the “Σlog Κ2^H” value is on record as 19.09. Besides, in series [6], the “log KMnHL” value is on record as 2.37 ^g and the “log KMnL” value is on record as 24.09 ^g. Besides, in series [10], the “log KMnHL” value is 5.87. Also, in [10] (ref 16 (PC2A ligands), 20 (H21,7-O2DO2A)), the “log KMnL” value was 8.11. For the same compound, the r2p in series [7] (0.49 T) is 3.49 mM⁻¹ s⁻¹. Moreover, in [7] (setting [11]), the r1p is 2.72 mM⁻¹ s⁻¹. Besides, in series [7] (1.41 T), the r1p was 2.40 mM⁻¹ s⁻¹ and the r2p was 4.20 mM⁻¹ s⁻¹. In series [8], the “log KMnHL” value is 5.27 and the “log KMnL” value was 9.57. In series [9], the “log KMnL” value is 15.53, the “log KMnHL” value is reported as 3.06 and the pMn is reported as 8.09.
On to `O=C(O)CN1CCNCCN(CC(=O)O)CCNCC1` [H21,7-DO2A], for which, in series [4], the “log KMnLOH” value was 1.78 ^f, the “log KMnL” value is listed as 18.86 and the “log KMnHL” value is 4.23. Further, in [5], the “log K1^H” value is recorded as 11.69, the “log K2^H” value is given as 9.75, the “log K3^H” value was 3.97 and the “log K4^H” value is recorded as 2.68. Further, in series [5], the “Σlog Κ2^H” value is reported as 21.44. For the same compound, in series [6], the “log KMnHL” value is on record as 3.06 and the “log KMnL” value is given as 24.24. In addition, the r1p in series [7] (setting [11]) was 1.50 mM⁻¹ s⁻¹. Further, the “log KMnL” value in series [8] is 8.86. Also, in series [9], the “log KMnL” value is reported as 14.64, the “log KMnHL” value is reported as 4.40 and the pMn is 6.52.
